{"source": "patent US10016383B2", "about": "“Inhibitors of metallo-β-lactamase-enzymes” (McMaster University, priority 2013, dated 2018)", "key": {"K. pneumoniae N11-2218 [1]": {"tested_on": "K. pneumoniae N11-2218", "test": "Microdilution checkerboard / MIC", "format": "cell-based, Klebsiella pneumoniae", "details": "checkerboard MIC, NDM-1 expressing CRE", "method": "(§1) FIC values were determined by standard methods^27 setting up checkerboards with 8 concentrations of each meropenem and AM-A in serial ½ dilutions. Experiments were done in duplicate and the mean used for calculation. The MIC for each compound was the lowest concentration of compound showing no growth. The FIC for each compound was calculated as the concentration of the compound in the presence of co-compound for a well showing no growth, divided by the MIC for that compound. The FIC index is the sum of the two FICs."}, "[2]": {"tested_on": "panel of 16 clinical CRE isolates", "test": "FIC index determination", "format": "cell-based, Enterobacteriaceae", "details": "meropenem and AM-A combinations; ≤0.5 defined as synergistic", "method": "as §1"}, "K. pneumoniae N11-2218 [3]": {"tested_on": "K. pneumoniae N11-2218", "test": "Mouse systemic infection, organ bacterial load", "format": "in vivo, CD1 mice", "text": "(§2) All animals were housed in specific pathogen-free units in the Central Animal Facility at McMaster University. All experimental protocols were approved by, and performed in accordance with the McMaster Animal Research Ethics Board. Female CD1 mice were purchased from Charles River.\n(§3) Mice were infected intraperitoneally (ip) with a dose of 2×10^6 colony forming units (cfu) of Klebsiella pneumoniae N11-2218 for all organ bacterial load experiments, or with a dose of 5×10^7cfu for all survival experiments. For all organ bacterial load experiments, mice were euthanized 48 hours post infection, and spleen and liver were harvested. Organs were placed into 1 mL sterile PBS on ice, and then homogenized (Mixer Mill 400; Retsch). Organ homogenates were then serially diluted in PBS, and plated on Brilliant Green agar (Oxoid) for cfu enumeration. For survival curves, mice were monitored for endpoint. For all experiments, mice were treated 30 minutes post infection with a specified subcutaneous dose of either PBS, meropenem, AM-A inhibitor, or a combination of both antibiotic and inhibitor."}, "K. pneumoniae N11-2218 [4]": {"tested_on": "K. pneumoniae N11-2218", "test": "Mouse lethal systemic infection, survival", "format": "in vivo, CD1 mice", "text": "as §2, §3"}}, "data": [{"smiles": "N[C@H](CN[C@H](CN[C@@H](CC(=O)O)C(=O)O)C(=O)O)C(=O)O", "note": "[AM-A, aspergillomarasmine A]", "values": [{"measurement": "synergy between meropenem and AM-A", "setting": "K. pneumoniae N11-2218 [1]", "value": "synergy"}, {"measurement": "Fractional inhibitory concentration (FIC) index", "setting": "[2]", "value": "< 0.1"}, {"measurement": "bacterial load in tissues", "setting": "K. pneumoniae N11-2218 [3]; AM-A alone", "value": "unaffected"}, {"measurement": "bacterial load in the spleen", "setting": "K. pneumoniae N11-2218 [3]; combination meropenem 10 mg/kg + AM-A 10 mg/kg, single dose, 48 hours post infection", "value": "significantly reduced"}, {"measurement": "prevention of lethal infection", "setting": "K. pneumoniae N11-2218 [4]; monotherapy (alone)", "value": "unable to prevent lethal infection"}, {"measurement": "survival", "setting": "K. pneumoniae N11-2218 [4]; single dose of combination meropenem 10 mg/kg + AM-A 30 mg/kg, 5 days following infection", "value": "> 95", "unit": "%"}]}]}
